Each structure is given as a SMILES string.

Holding throughout (format): biochemical
For one experiment, the target named is Pim3 kinase (Homo sapiens, UniProt Q86V86). Briefly: Pim3 ATP depletion assay. Particulars: read-out: IC50 (μM) PIM3.
The next experiment has as its target Pim2 kinase (Homo sapiens, UniProt Q9P1W9). Briefly: Pim2 ATP depletion assay.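 Also: Luciferase-based luminescent readout of ATP remaining after PIM2 phosphorylates a BAD peptide, final 5 nM enzyme, 4 µM ATP, 10 µM peptide, 2.5% DMSO, run to roughly half ATP consumption.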 The settings on record: read-out: IC50 (μM) PIM2.
Another experiment concerns the target Pim1 kinase (Homo sapiens, UniProt P11309). Briefly: Pim1 ATP depletion assay.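 Also: Luciferase-luciferin luminescence readout of residual ATP after PIM1 transfers phosphate to a peptide substrate, 40 µM ATP added, reaction run to roughly half ATP consumption.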 The settings on record: Pim1 ATP depletion assay; read-out: IC50 (μM) PIM1.

Pim2 kinase, sequence (Q9P1W9 whole entry): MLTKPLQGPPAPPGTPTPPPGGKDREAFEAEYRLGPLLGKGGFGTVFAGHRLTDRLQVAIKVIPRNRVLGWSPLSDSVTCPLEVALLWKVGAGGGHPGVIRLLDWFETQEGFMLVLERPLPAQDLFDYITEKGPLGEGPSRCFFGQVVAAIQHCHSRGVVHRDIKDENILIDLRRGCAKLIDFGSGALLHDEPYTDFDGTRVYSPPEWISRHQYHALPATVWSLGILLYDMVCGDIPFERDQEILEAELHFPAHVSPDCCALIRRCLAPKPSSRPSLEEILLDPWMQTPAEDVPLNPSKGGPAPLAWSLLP
Pim1 kinase, sequence (P11309 whole entry): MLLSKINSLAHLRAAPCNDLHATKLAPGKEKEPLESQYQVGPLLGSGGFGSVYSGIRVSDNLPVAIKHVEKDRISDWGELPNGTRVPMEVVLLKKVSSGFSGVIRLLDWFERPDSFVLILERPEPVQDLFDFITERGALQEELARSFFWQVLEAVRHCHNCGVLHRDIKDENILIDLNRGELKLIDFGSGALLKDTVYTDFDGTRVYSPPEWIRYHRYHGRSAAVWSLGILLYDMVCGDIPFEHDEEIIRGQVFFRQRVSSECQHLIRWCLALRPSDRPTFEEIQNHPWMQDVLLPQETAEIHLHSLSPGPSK

In general, IC50 refers to the concentration at which inhibition is half-maximal. For `Nc1nccnc1C(=O)Nc1cc(C(=O)C2CC2)ccc1N1CCNCC1` [Example 245, 3-amino-N-[5-(cyclopropyl-carbonyl)-2-piperazin-1-yl-phenyl]pyrazine-2-carboxamide], the IC50 at Pim3 kinase was 10 to 25 µM; on Pim2 kinase, more than 25 µM; at Pim1 kinase, more than 25 µM.

Consider `Nc1cnc(-c2c(F)cccc2F)nc1C(=O)Nc1cnccc1N1C[C@H](N)C[C@H](N)C1` [Example 246, 5-Amino-2-(2,6-difluoro-phenyl)-pyrimidine-4-carboxylic acid (3,5-diamino-3,4,5,6-tetra-hydro-2H-[1,4′]bipyridinyl-3′-yl)-amide], for which the 50% inhibitory concentration (IC50) at Pim3 kinase, on Pim2 kinase and at Pim1 kinase was less than 1 µM throughout.

Consider `Nc1cnc(-c2ccccc2F)nc1C(=O)Nc1cnccc1N1C[C@H](N)C[C@H](N)C1` [Example 247, 5-Amino-2-(2-fluoro-phenyl)-pyrimidine-4-carboxylic acid (3,5-diamino-3,4,5,6-tetrahydro-2H-[1,4′]bipyridinyl-3′-yl)-amide], for which the concentration for half-maximal inhibition (IC50) on Pim3 kinase, at Pim2 kinase and at Pim1 kinase was less than 1 µM throughout.

Take `Nc1ccc(-c2ccccc2F)nc1C(=O)Nc1cnccc1N1C[C@H](N)C[C@H](N)C1` [Example 248, 3-Amino-6-(2-fluoro-phenyl)-pyridine-2-carboxylic acid (3,5-diamino-3,4,5,6-tetrahydro-2H-[1,4′]bipyridinyl-3′-yl)-amide]: the IC50 at Pim3 kinase, on Pim2 kinase and on Pim1 kinase was less than 1 µM each time.

Turning to `N[C@H]1CCCN(c2ccncc2NC(=O)c2ccnc(-c3ccccc3F)n2)C1` [Example 250, N-{4-[(3S)-3-aminopiperidin-1-yl]pyridin-3-yl}-2-(2-fluoro-phenyl)pyrimidine-4-carbox-amide], the concentration for half-maximal inhibition (IC50) on Pim3 kinase, on Pim2 kinase and on Pim1 kinase was less than 1 µM in each case.

Take `NCCC(=O)N1CCN(c2ccncc2NC(=O)c2nc(-c3ccccc3F)ccc2N)CC1` [Example 251, 3-Amino-6-(2-fluoro-phenyl)-pyridine-2-carboxylic acid {4-[4-(3-amino-propionyl)-piperazin-1-yl]-pyridin-3-yl}-amide]: the IC50 at Pim3 kinase, on Pim2 kinase and at Pim1 kinase was less than 1 µM in each case.

Consider `NCC(=O)N1CCN(c2ccncc2NC(=O)c2nc(-c3ccccc3F)ccc2N)CC1` [Example 252, 3-Amino-6-(2-fluoro-phenyl)-pyridine-2-carboxylic acid {4-[4-(2-amino-acetyl)-piperazin-1-yl]-pyridin-3-yl}-amide], for which the IC50 on Pim3 kinase, at Pim2 kinase and at Pim1 kinase was less than 1 µM throughout.

`CC(C)NC(=O)c1ccc(F)c(-c2ccc(N)c(C(=O)Nc3cnccc3N3CC[C@@H](F)[C@H](N)C3)n2)c1` [Example 253, 3-Amino-6-(2-fluoro-5-isopropylcarbamoyl-phenyl)-pyridine-2-carboxylic acid (3-amino-4-fluoro-3,4,5,6-tetra-hydro-2H-[1,4′]bipyridinyl-3′-yl)-amide]: the IC50 on Pim3 kinase, on Pim2 kinase and at Pim1 kinase was less than 1 µM each time.

For the molecule `Nc1ccc(-c2ccccc2F)nc1C(=O)Nc1cnccc1N1CCC(F)(F)C(N)C1` (stereo not drawn) [Example 254, 3-Amino-6-(2-fluoro-phenyl)-pyridine-2-carboxylic acid (3-amino-4,4-difluoro-3,4,5,6-tetra-hydro-2H-[1,4′]bipyridinyl-3′-yl)-amide], the half-inhibitory concentration (IC50) at Pim3 kinase, on Pim2 kinase and on Pim1 kinase was less than 1 µM each time.

In the case of `CC(C)NC(=O)c1ccc(F)c(-c2ccc(N)c(C(=O)Nc3cnccc3N3CCC(F)(F)C(N)C3)n2)c1` (stereo not drawn) [Example 255, 3-Amino-6-(2-fluoro-5-isopropylcarbamoyl-phenyl)-pyridine-2-carboxylic acid (3-amino-4,4-difluoro-3,4,5,6-tetra-hydro-2H-[1,4′]bipyridinyl-3′-yl)-amide], the IC50 on Pim3 kinase, at Pim2 kinase and at Pim1 kinase was less than 1 µM each time.
